Where a name gives a salt, the structure may show the parent alone.
Experiments:
human NHE3 = target: T1, human NHE3 (Homo sapiens, UniProt P48764); assay: NHE3 inhibition test (recovery of intracellular pH in cell line stably expressing human NHE3); type: cell-based; settings: OK cells deficient in endogenous NHE stably expressing human NHE3; BCECF fluorescence, initial rate of pH recovery; read-out: human NHE3 inhibitory activity IC50
T1 sequence (P48764 26-834): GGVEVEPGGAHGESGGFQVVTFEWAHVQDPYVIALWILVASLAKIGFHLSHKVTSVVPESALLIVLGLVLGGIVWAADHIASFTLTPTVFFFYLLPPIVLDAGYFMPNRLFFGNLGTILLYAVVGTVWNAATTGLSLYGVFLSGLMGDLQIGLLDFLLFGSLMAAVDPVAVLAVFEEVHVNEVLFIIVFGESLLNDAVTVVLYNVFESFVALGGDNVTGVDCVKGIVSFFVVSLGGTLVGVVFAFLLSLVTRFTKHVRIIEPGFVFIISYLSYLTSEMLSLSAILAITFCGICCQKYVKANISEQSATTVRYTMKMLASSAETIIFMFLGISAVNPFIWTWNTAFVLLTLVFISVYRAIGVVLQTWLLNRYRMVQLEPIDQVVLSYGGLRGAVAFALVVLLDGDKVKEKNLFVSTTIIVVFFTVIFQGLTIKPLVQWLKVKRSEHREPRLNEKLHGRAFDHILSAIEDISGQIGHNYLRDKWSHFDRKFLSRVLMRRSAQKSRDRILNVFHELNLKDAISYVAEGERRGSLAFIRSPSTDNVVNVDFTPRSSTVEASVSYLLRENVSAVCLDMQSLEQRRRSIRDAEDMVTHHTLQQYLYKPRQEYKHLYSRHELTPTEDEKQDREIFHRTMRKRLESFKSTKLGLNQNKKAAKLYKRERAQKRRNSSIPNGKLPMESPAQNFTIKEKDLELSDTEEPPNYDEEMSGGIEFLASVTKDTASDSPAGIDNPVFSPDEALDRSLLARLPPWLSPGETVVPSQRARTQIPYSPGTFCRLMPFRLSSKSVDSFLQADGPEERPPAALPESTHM
Method in brief: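 Opossum kidney cells lacking endogenous NHE, stably expressing human NHE3, loaded with BCECF-AM and acid-loaded by NH4Cl washout. Compound in Na-free buffer, then Na-containing buffer (pH 7.4) added; initial pH-recovery rate by BCECF fluorescence, IC50 versus no-compound recovery.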

SD rat = assay: 32P-phosphate oral loading test using SD rat (phosphorus absorption inhibitory effect); type: in vivo; settings: Rattus norvegicus, 0.5 h; SD male rats, oral dose 3 mg/kg; plasma radioactivity 30 minutes after 32P-phosphate solution, vs control group; read-out: Rate of inhibition of phosphate absorption
Description: Phosphorus Absorption Inhibitory Effect of the Compound of the Present Invention in ^32P-Phosphate Oral Loading Test Using SD Rat
8-week-old SD male rats (Japan SLC, Inc.) were used as laboratory animals. Each test compound was suspended or dissolved at a concentration of 0.2 mg/mL or 0.6 mg/mL in Japanese Pharmacopoeia water for injection (manufactured by Hikari Pharmaceutical Co., Ltd.) and orally administered to each rat at a dose of 5 ml/kg body weight. Japanese Pharmacopoeia water for injection was administered at the same dose as above to a control group. 5 minutes after the administration of the test compound or water for injection, a phosphate solution (1.3 mM NaH2PO4) containing 32P-phosphate (PerkinElmer Inc.) was administered thereto at a dose of 5 ml/kg. 30 minutes after the administration of the phosphate solution, blood was collected from the tail vein, and the blood sample was immediately mixed with EDTA-2K (manufactured by Dojindo Laboratories). Then, the mixture was centrifuged at 3000 rpm at 4° C. for 10 minutes to recover plasma.
The radioactivity in 100 μL of the plasma was measured using a liquid scintillation counter and used as a phosphate absorption count. The radioactivity in the plasma of the control group was used as a control, and the rate of inhibition of phosphate absorption was determined according to the following expression: Rate of inhibition of phosphate absorption (%)=(1−Phosphate absorption count of the test compound administration group/Phosphate absorption count of the control group)×100 (2) Results

| IC50 (human NHE3) [nM] | Compound | inhibition in vivo at 3 mg/kg (SD rat) [%] |
| --- | --- | --- |
| 0.8 | CN1Cc2c(Cl)cc(Cl)cc2[C@H](c2cccc(-c3cn(CCOCCOCCOCCNC(=O)[C@@H](O)[C@H](O)[C@H](O)[C@@H](O)C(=O)NCCOCCOCCOCCn4cc(-c5cccc([C@@H]6CN(C)Cc7c(Cl)cc(Cl)cc76)c5)nn4)nn3)c2)C1 [Example 6-8, (2R,3S,4R,5S)—N,N′-Bis[2-(2-{2-[2-(4-{3-[(4S)-6,8-dichloro-2-methyl-1,2,3,4-tetrahydroisoquinolin-4-yl]phenyl}-1H-1,2,3-triazol-1-yl)ethoxy]ethoxy}ethoxy)ethyl]-2,3,4,5-tetrahydroxyhexanediamide hydrochloride] | 34 |
| 4.1 | CN1Cc2c(Cl)cc(Cl)cc2[C@H](c2cccc(-c3cn(CCOCCOCCOCCOCCNC(=O)[C@H](O)[C@@H](O)C(=O)NCCOCCOCCOCCOCCn4cc(-c5cccc([C@@H]6CN(C)Cc7c(Cl)cc(Cl)cc76)c5)nn4)nn3)c2)C1 [Example 6-9, (2R,3R)—N,N′-Bis[14-(4-{3-[(4S)-6,8-dichloro-2-methyl-1,2,3,4-tetrahydroisoquinolin-4-yl]phenyl}-1H-1,2,3-triazol-1-yl)-3,6,9,12-tetraoxatetradec-1-yl]-2,3-dihydroxybutanediamide hydrochloride] | 53 |
| 6.2 | CN1Cc2c(Cl)cc(Cl)cc2[C@H](c2cccc(-c3cn(CCOCCOCCOCCOCCOCCNC(=O)[C@H](O)[C@@H](O)C(=O)NCCOCCOCCOCCOCCOCCn4cc(-c5cccc([C@@H]6CN(C)Cc7c(Cl)cc(Cl)cc76)c5)nn4)nn3)c2)C1 [Example 6-10, (2R,3R)—N,N′-Bis[17-(4-{3-[(4S)-6,8-dichloro-2-methyl-1,2,3,4-tetrahydroisoquinolin-4-yl]phenyl}-1H-1,2,3-triazol-1-yl)-3,6,9,12,15-pentaoxaheptadec-1-yl]-2,3-dihydroxybutanediamide hydrochloride] | 38 |
| 1.4 | CN1Cc2c(Cl)cc(Cl)cc2[C@H](c2cccc(-c3cn(CCOCCOCCOCCOCCNC(=O)[C@@H](O)[C@H](O)[C@H](O)[C@@H](O)C(=O)NCCOCCOCCOCCOCCn4cc(-c5cccc([C@@H]6CN(C)Cc7c(Cl)cc(Cl)cc76)c5)nn4)nn3)c2)C1 [Example 6-11, (2R,3S,4R,5S)—N,N′-Bis[14-(4-{3-[(4S)-6,8-dichloro-2-methyl-1,2,3,4-tetrahydroisoquinolin-4-yl]phenyl}-1H-1,2,3-triazol-1-yl)-3,6,9,12-tetraoxatetradec-1-yl]-2,3,4,5-tetrahydroxyhexanediamide hydrochloride] | 33 |
| 2.3 | CN1Cc2c(Cl)cc(Cl)cc2[C@@H](c2cccc(-c3cn(CCOCCOCCOCCOCCOCCNC(=O)[C@H](O)[C@@H](O)[C@@H](O)[C@H](O)C(=O)NCCOCCOCCOCCOCCOCCn4cc(-c5cccc([C@@H]6CN(C)Cc7c(Cl)cc(Cl)cc76)c5)nn4)nn3)c2)C1 [Example 6-12, (2R,3S,4R,5S)—N-[17-(4-{3-[(4R)-6,8-Dichloro-2-methyl-1,2,3,4-tetrahydroisoquinolin-4-yl]phenyl}-1H-1,2,3-triazol-1-yl)-3,6,9,12,15-pentaoxaheptadec-1-yl]-N′-[17-(4-{3-[(4S)-6,8-dichloro-2-methyl-1,2,3,4-tetrahydroisoquinolin-4-yl]phenyl}-1H-1,2,3-triazol-1-yl)-3,6,9,12,15-pentaoxaheptadec-1-yl]2,3,4,5-tetrahydroxyhexanediamide hydrochloride] | 37 |
| 9.4 | CN1Cc2c(Cl)cc(Cl)cc2[C@H](c2cccc(-c3cc(NCCOCCOCCNC(=O)NCCCCNC(=O)NCCOCCOCCNc4cc(-c5cccc([C@@H]6CN(C)Cc7c(Cl)cc(Cl)cc76)c5)ncn4)ncn3)c2)C1 [Example 7-2, 1,1′-Butane-1,4-diylbis {3-[2-(2-{2-[(6-{3-[(4S)-6,8-dichloro-2-methyl-1,2,3,4-tetrahydroisoquinolin-4-yl]phenyl}pyrimidin-4-yl)amino]ethoxy}ethoxy)ethyl]urea} tetrahydrochloride] | 23 |
| 8.4 | CN1Cc2c(Cl)cc(Cl)cc2[C@H](c2cccc(-c3ccnc(NCCOCCOCCNC(=O)NCCCCNC(=O)NCCOCCOCCNc4cc(-c5cccc([C@@H]6CN(C)Cc7c(Cl)cc(Cl)cc76)c5)ccn4)c3)c2)C1 [Example 7-4, 1,1′-Butane-1,4-diylbis {3-[2-(2-{2-[(4-{3-[(4S)-6,8-dichloro-2-methyl-1,2,3,4-tetrahydroisoquinolin-4-yl]phenyl}pyridin-2-yl)amino]ethoxy}ethoxy)ethyl]urea}pentahydrochloride] | 27 |
| 4.5 | CN1Cc2c(Cl)cc(Cl)cc2[C@H](c2cccc(-c3cnn(CCOCCOCCNC(=O)NCCCCNC(=O)NCCOCCOCCn4cc(-c5cccc([C@@H]6CN(C)Cc7c(Cl)cc(Cl)cc76)c5)cn4)c3)c2)C1 [Example 7-5, 1,1′-Butane-1,4-diylbis[3-(2-{2-[2-(4-{3-[(4S)-6,8-dichloro-2-methyl-1,2,3,4-tetrahydroisoquinolin-4-yl]phenyl}-1H-pyrazol-1-yl)ethoxy]ethoxy}ethyl)urea]diformate] | 23 |
| 10 | CN1Cc2c(Cl)cc(Cl)cc2[C@H](c2cccc(-c3cc(NCCOCCOCCNC(=O)NCCCCNC(=O)NCCOCCOCCNc4cnnc(-c5cccc([C@@H]6CN(C)Cc7c(Cl)cc(Cl)cc76)c5)c4)cnn3)c2)C1 [Example 7-6, 1,1′-Butane-1,4-diylbis {3-[2-(2-{2-[(6-{3-[(4S)-6,8-dichloro-2-methyl-1,2,3,4-tetrahydroisoquinolin-4-yl]phenyl}pyridazin-4-yl)amino]ethoxy}ethoxy)ethyl]urea}pentahydrochloride] | 24 |
| 7.3 | CN1Cc2c(Cl)cc(Cl)cc2[C@H](c2cccc(-c3nnn(CCOCCOCCNC(=O)NCCCCNC(=O)NCCOCCOCCn4nnc(-c5cccc([C@@H]6CN(C)Cc7c(Cl)cc(Cl)cc76)c5)n4)n3)c2)C1 [Example 7-9, 1,1′-Butane-1,4-diylbis[3-(2-{2-[2-(5-{3-[(4S)-6,8-dichloro-2-methyl-1,2,3,4-tetrahydroisoquinolin-4-yl]phenyl}-2H-tetrazol-2-yl)ethoxy]ethoxy}ethyl)urea]hydrochloride] | 22 |
| 13.7 | CN1Cc2c(Cl)cc(Cl)cc2[C@H](c2cccc(-c3nnn(CCOCCOCCNC(=O)Nc4ccc(NC(=O)NCCOCCOCCn5nnc(-c6cccc([C@@H]7CN(C)Cc8c(Cl)cc(Cl)cc87)c6)n5)cc4)n3)c2)C1 [Example 7-10, 1,1′-Benzene-1,4-diylbis[3-(2-{2-[2-(5-{3-[(4S)-6,8-dichloro-2-methyl-1,2,3,4-tetrahydroisoquinolin-4-yl]phenyl}-2H-tetrazol-2-yl)ethoxy]ethoxy}ethyl)urea]hydrochloride] | 35 |
| 8.1 | CN1Cc2c(Cl)cc(Cl)cc2[C@H](c2cccc(-c3cn(CCOCCOCCNC(=O)NCCCCNC(=O)NCCOCCOCCn4cnc(-c5cccc([C@@H]6CN(C)Cc7c(Cl)cc(Cl)cc76)c5)c4)cn3)c2)C1 [Example 7-15, 1,1′-Butane-1,4-diylbis[3-(2-{2-[2-(4-{3-[(4S)-6,8-dichloro-2-methyl-1,2,3,4-tetrahydroisoquinolin-4-yl]phenyl}-1H-imidazol-1-yl)ethoxy]ethoxy}ethyl)urea]hydrochloride] | 36 |

Source: patent US9932331B2, “Phenyl tetrahydroisoquinoline compound substituted with heteroaryl” (TAISHO PHARMACEUTICAL CO., LTD, priority 2014, dated 2018)
